Measured values from patent publication US20220233640A1, “GALANIN- AND GALANIN RECEPTOR BASED COMPOUNDS FOR THE TREATMENT OF LIVER FIBROSIS” (United State Govermment as represented by the Department of …, priority 2019, published 2022).
Ends that are not written are not given here.

System: FVBN and Mdr2KO mice
Experiment: Non-hepatic effects: serum biomarkers of heart (CK) and kidney (CREA, BUN), IDEXX assay system
Assay type: in vivo, mouse
Set-up: CREA / BUN: unit not given here
Conditions: for effects on heart (CK) and kidneys (CREA, BUN): FVBN and Mdr2KO mice, vs vehicle-treated mice; for CK / BUN / CREA: serum
Description: FVB/N (FVBN) and Mdr2^−/− (Mdr2KO) mice were purchased from Jackson Laboratory (Bar Harbor, Me.) and maintained in a temperature-controlled environment at 20-22° C. with a 12:12 hours light-dark cycle, having free access to food and drinking water. All animal procedures were performed in accord with the guidelines of Baylor Scott and White (Temple, Tex.) Institutional Animal Care and Use Committee, with approved protocols. In time-course experiments, 1 week, 1 months, 2 months and 4 months old male and female FVBN and Mdr2KO mice were used. In experiments designed to measure the effect of various agonists and antagonists of Gal receptors, on the extent of liver fibrosis in Mdr2KO mice, 2 months old, male and female Mdr2KO mice were used, as well as FVBN mice as negative controls. Four to five animals in each group of age/gender/type (FVBN or Mdr2KO) were used. In parallel, an equal number of 2 months old, male and female FVBN and MDR2KO mice were treated with vehicle only (saline or 20% DMSO) via the same type of minipumps. Galanin, M871 and M40 peptides were dissolved in saline or 20% DMSO in saline, depending on their solubility, and administered by using Alzet osmotic minipumps (Cupertino, Calif.). Galanin, M871 and M40, were administered at a rate of 4 nmol/Kg/day (mice weights being 25-30 g). Vivo-morpholino oligos including two sequences specific to mouse GalR1, and one mouse GalR1 mismatch control, were administered at a rate of 25 μg/mouse/day, for 14 days, after which the mice were euthanized with euthasol, followed by exsanguination and collection of liver tissue.
Serum alanine aminotransferase (ALT), aspartate aminotransferase (AST), alkaline phosphatase (ALKP), CREA, BUN and CK were measured using the IDEXX Catalyst One instrument from IDEXX Laboratories, Inc (Houston, Tex.).
To investigate possible adverse effects of GalR antagonists on vital organs other than the liver, blood biomarkers of the heart (creatine kinase, CK) and kidneys (creatinine, CREA; blood urea nitrogen, BUN) were investigated in FVBN and Mdr2KO mice when treated with GalR1 vivo morpholino, M871, and M40 as compared to vehicle-treated mice.
Referring to Table 2, non-hepatic effects of GalR1 vivo morpholino, M871, and M40 Gal receptor antagonists on FVBN mice are shown. Several serum biomarkers including creatine kinase (CK) for heart, creatinine (CREA) and blood urea nitrogen (BUN) for kidney, were assessed by using IDEXX assay system. Normal range: CK, 68-1070 U/L; CREA, […]; BUN, […].

Substance	effects on heart (CK) and kidneys (CREA, BUN)	CK (Female FVBN mice) [U/L]	CK (Female Mdr2KO mice) [U/L]	CK (Male FVBN mice) [U/L]	CK (Male Mdr2KO mice) [U/L]	BUN (Female FVBN mice)	CREA (Female FVBN mice)	BUN (Female Mdr2KO mice)	CREA (Female Mdr2KO mice)	BUN (Male FVBN mice)	CREA (Male FVBN mice)	BUN (Male Mdr2KO mice)	CREA (Male Mdr2KO mice)
GWTLNSAGYLLGPPPALALA-NH2 [M40]	no effects on the heart or kidneys	151.30 ± 19.90	163.33 ± 63.33	190.00 ± 58.59	103.33 ± 3.33								
WTLNSAGYLLGPEHPPPALALA-NH2 [M871]	no effects on the heart or kidneys	136.67 ± 36.67	213.33 ± 103.49	99.67 ± 0.88	230.00 ± 52.92	26.55 ± 1.67	0.79 ± 0.041	23.33 ± 0.49	0.68 ± 0.012	26.97 ± 0.83	0.81 ± 0.063	23.04 ± 0.92	0.67 ± 0.042
